system: not given; assay: not given; details: not given

Q: Which melting point does the source give for `NC(=O)Cc1ccc(N/C=C2\C(=O)Nc3ccccc32)cc1` [Example 5, 2-(4-{[(Z)-(2-oxo-1,2-dihydro-3H-indol-3-ylidene)methyl]amino}phenyl)acetamide] here?
A: > 250 °C

target: T1, TrkA (Homo sapiens, UniProt P04629); assay: TrkA tyrosine kinase substrate phosphorylation assay (Src peptide, 33P-ATP, p81 filter plates); format: biochemical; details: GST-fusion of TrkA intracellular domain, 30 uM ATP, 50 uM Src peptide, RT 120 min
T1 construct: The enzyme is a GST-fusion of the intracellular domain expressed in SF9 cells; GST; host or cells: SF9 insect cells
Protocol: The compounds of the present invention have valuable pharmacologic properties. Different compounds from this class are particularly effective at inhibiting the trkA kinase enzyme at concentrations that range from 0.0001 to 1 μM and additionally show specificity relative to other kinases. Substrate phosphorylation assays were carried out as follows:
Screening format: Tyrosine kinase activity is being measured using a synthetic peptide substrate. The enzyme is a GST-fusion of the intracellular domain expressed in SF9 cells. The enzyme is expressed and purified by Regeneron. The enzyme is preincubated with cold ATP and Mg to allow autophosphorylation prior to running the screen. This increases the initial rate of catalysis approximately 3 fold. The assay is performed in 96 well microtitre plates, and reaction products are detected following filtration through millipore p81 phosphocellulose plates.

T1 sequence (P04629 440-796 limits assumed, species assumed): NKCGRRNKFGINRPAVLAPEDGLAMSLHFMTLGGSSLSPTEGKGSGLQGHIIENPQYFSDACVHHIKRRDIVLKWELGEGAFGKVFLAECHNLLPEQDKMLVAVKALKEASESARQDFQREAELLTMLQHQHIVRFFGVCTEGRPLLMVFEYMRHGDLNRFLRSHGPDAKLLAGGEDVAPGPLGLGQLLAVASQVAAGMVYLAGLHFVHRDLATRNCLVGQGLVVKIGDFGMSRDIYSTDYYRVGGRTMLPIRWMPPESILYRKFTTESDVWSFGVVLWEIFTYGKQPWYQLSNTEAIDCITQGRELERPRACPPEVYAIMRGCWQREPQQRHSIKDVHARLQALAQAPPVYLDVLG

Q: With `O=C1Nc2ccccc2/C1=C/Nc1ccc2[nH]c(=O)[nH]c2c1` [Example 1, 5-{[(Z)-(2-oxo-1,2-dihydro-3H-indol-3-ylidene)methyl]amino}-1,3-dihydro-2H-benzimidazol-2-one] as the molecule, how does the IC50 read?
A: < 10 nM

Q: Which IC50 does the source give for `O=C1Nc2ccccc2/C1=C/Nc1ccc(-n2cncn2)cc1` [Example 2, (3Z)-3-{[4-(1H-1,2,4-triazol-1-yl)anilino]-methylene}-1,3-dihydro-2H-indol-2-one] here?
A: < 10 nM

Q: For `CCC1(c2ccc(N/C=C3\C(=O)Nc4ccccc43)cc2)CCC(=O)NC1=O` (stereo not shown) [Example 3, 3-ethyl-3-(4-{[(Z)-(2-oxo-1,2-dihydro-3H-indol-3-ylidene)methyl]amino}phenyl)-2,6-piperidinedione], which IC50 is on record?
A: < 10 nM

Q: For `Nc1nnc(-c2cccc(N/C=C3\C(=O)Nc4ccc5[nH]nnc5c43)c2)o1` [Example 4, (8Z)-8-{[3-(5-amino-1,3,4-oxadiazol-2-yl)anilino]methylene}-6,8-dihydro[1,2,3]triazolo[4,5-e]indol-7(3H)-one], which IC50 is on record?
A: < 10 nM

Q: Which IC50 does the source give for `NC(=O)Cc1ccc(N/C=C2\C(=O)Nc3ccccc32)cc1` [Example 5, 2-(4-{[(Z)-(2-oxo-1,2-dihydro-3H-indol-3-ylidene)methyl]amino}phenyl)acetamide] here?
A: 10 to 100 nM

Q: For `O=C1Nc2ccccc2/C1=C/Nc1ccc(-c2nc[nH]n2)cc1` [Example 6, (3Z)-3-{[4-(1H-1,2,4-triazol-3-yl)anilino]methylene}-1,3-dihydro-2H-indol-2-one], which IC50 is on record?
A: 10 to 100 nM
